Laboratory results reported in patent publication US9951066B2, “Compositions, uses and methods for making them” (Pimera, Inc., priority 2014, dated 2018).
Structures can show the parent of a compound that is named as a salt. Where two headings read alike, the source gives them in different places.

How the values were obtained:
Format in all cases: cell-based
[1] = system: NB4-Av; test: Alamar Blue cell viability assay, NB4-Av; conditions: 96 h incubation, read-out: cell proliferation inhibition NB4-Av
Experimental: (§1) Inhibitory activity on cell proliferation of representative compounds of the invention was determined using an Alamar Blue cell viability assay as described hereafter.
(§2) 3000 cancer cells in 100 uL of cell culture media were plated in each well of a 96-well clear bottom, black wall cell culture-pretreated plate.
(§3) The next day compounds are serially diluted (3-fold in cell culture media) across a 96-well polypropylene mother plate from row A to row F, to yield 6 concentrations (10 uM, 3.3 uM, 1.1 uM, 370 nM, 124 nM and 41 nM) for each test compound. Rows G and H contain only DMSO.
(§4) Once titrations are made, the media in plates with cells were disposed and 100 μL of drug dilutions are transferred to plates with cells. After a ninety six-hour incubation at 37° C., 10 uL of resazurin solution from Alamar Blue Cell Viability kit (Invitrogen, Carlsbad, Calif.) was added to the media and cells were incubated at 37° C. for three more hours. At the end of this incubation the production of resofurin was measured using Spectrmax M2 microplate reader (Molecular Devices, Sunnyvale, Calif.)

[2] = system: CT26; test: Alamar Blue cell viability assay, CT26; conditions: Mus musculus, 96 h incubation, read-out: cell proliferation inhibition CT26
Experimental: as §1, §2, §3, §4

[3] = system: SKM_1_AV; test: Alamar Blue cell viability assay, SKM_1_AV; conditions: 96 h incubation, read-out: cell proliferation inhibition SKM_1_AV
Experimental: as §1, §2, §3, §4

[4] = system: ML-2; test: Alamar Blue cell viability assay, ML-2; conditions: Homo sapiens, 96 h incubation, read-out: cell proliferation inhibition ML-2
Experimental: as §1, §2, §3, §4

[5] = system: HT-1080; test: Alamar Blue cell viability assay, HT-1080; conditions: Homo sapiens, 96 h incubation, read-out: cell proliferation inhibition HT-1080
Experimental: as §1, §2, §3, §4

[6] = system: LnCAP; test: Alamar Blue cell viability assay, LnCAP; conditions: Homo sapiens, 96 h incubation, read-out: cell proliferation inhibition LnCAP
Experimental: as §1, §2, §3, §4

[7] = system: 4T1; test: Alamar Blue cell viability assay, 4T1; conditions: Mus musculus, 96 h incubation, read-out: cell proliferation inhibition 4T1
Experimental: as §1, §2, §3, §4

[8] = system: ES.2; test: Alamar Blue cell viability assay, ES.2; conditions: Homo sapiens
Experimental: as §1, §2, §3, §4

[9] = system: PC-3; test: Alamar Blue cell viability assay, PC-3; conditions: Homo sapiens, 96 h incubation, read-out: cell proliferation inhibition PC-3
Experimental: as §1, §2, §3, §4

[10] = system: Hep G2; test: Alamar Blue cell viability assay, Hep G2; conditions: Homo sapiens, HepG2, 96 h incubation, read-out: cell proliferation inhibition Hep G2
Experimental: as §1, §2, §3, §4

[11] = system: NOMO-1; test: Alamar Blue cell viability assay, NOMO-1; conditions: Homo sapiens, 96 h incubation, read-out: cell proliferation inhibition NOMO-1
Experimental: as §1, §2, §3, §4

[12] = system: WM-115; test: Alamar Blue cell viability assay, WM-115; conditions: Homo sapiens, 96 h incubation, read-out: cell proliferation inhibition WM-115
Experimental: as §1, §2, §3, §4

[13] = system: B16-F10; test: Alamar Blue cell viability assay, B16-F10; conditions: Mus musculus, 96 h incubation, read-out: cell proliferation inhibition B16-F10
Experimental: as §1, §2, §3, §4

[14] = system: MCF7; test: Alamar Blue cell viability assay, MCF7; conditions: Homo sapiens, 96 h incubation, read-out: cell proliferation inhibition MCF7
Experimental: as §1, §2, §3, §4

[15] = system: SKM-1; test: Alamar Blue cell viability assay, SKM-1; conditions: Homo sapiens, 96 h incubation, read-out: cell proliferation inhibition SKM-1
Experimental: as §1, §2, §3, §4

[16] = system: DLD-1; test: Alamar Blue cell viability assay, DLD-1; conditions: Homo sapiens, 96 h incubation, read-out: cell proliferation inhibition DLD-1
Experimental: as §1, §2, §3, §4

[17] = system: A375 cell line; test: Alamar Blue cell viability assay, A375; conditions: Homo sapiens, A-375; cell proliferation inhibition, Alamar Blue, 96 h incubation; read-out: Pharmaceutical activity IC50 A375
Experimental: as §1, §2, §3, §4

[18] = system: Hs.294T; test: Alamar Blue cell viability assay, Hs.294T; conditions: Homo sapiens, 96 h incubation, read-out: cell proliferation inhibition Hs.294T
Experimental: as §1, §2, §3, §4

[19] = system: KG-1; test: Alamar Blue cell viability assay, KG-1; conditions: Homo sapiens, 96 h incubation, read-out: cell proliferation inhibition KG-1
Experimental: as §1, §2, §3, §4

[20] = system: MDA-MB-231; test: Alamar Blue cell viability assay, MDA-MB-231; conditions: Homo sapiens, 96 h incubation, read-out: cell proliferation inhibition MDA-MB-231
Experimental: as §1, §2, §3, §4

[21] = system: NCI-H1299; test: Alamar Blue cell viability assay, NCI-H1299; conditions: Homo sapiens, 96 h incubation, read-out: cell proliferation inhibition NCI-H1299
Experimental: as §1, §2, §3, §4

[22] = system: A549; test: Alamar Blue cell viability assay, A549; conditions: Homo sapiens, 96 h incubation, read-out: cell proliferation inhibition A549
Experimental: as §1, §2, §3, §4

[23] = system: HCT-116; test: Alamar Blue cell viability assay, HCT-116; conditions: Homo sapiens, 96 h incubation, read-out: cell proliferation inhibition HCT-116
Experimental: as §1, §2, §3, §4

[24] = system: AGS; test: Alamar Blue cell viability assay, AGS; conditions: Homo sapiens, 96 h incubation, read-out: cell proliferation inhibition AGS
Experimental: as §1, §2, §3, §4

[25] = system: A2058; test: Alamar Blue cell viability assay, A2058; conditions: Homo sapiens, cell proliferation inhibition, 96 h incubation, read-out: Pharmaceutical activity IC50 A2058
Experimental: as §1, §2, §3, §4

[26] = system: JHOM1; test: Alamar Blue cell viability assay, JHOM1 ovarian cell line; conditions: 96 h incubation, read-out: IC50 in ovarian cell lines JHOM1
Experimental: as §1, §2, §3, §4

[27] = system: U-87 MG; test: Alamar Blue cell viability assay, U-87 MG; conditions: Homo sapiens, cell proliferation inhibition, 96 h incubation, read-out: Pharmaceutical activity IC50 U-87 MG
Experimental: as §1, §2, §3, §4

[28] = system: JHOC7; test: Alamar Blue cell viability assay, JHOC7 ovarian cell line; conditions: 96 h incubation, read-out: IC50 in ovarian cell lines JHOC7
Experimental: as §1, §2, §3, §4

[29] = system: JHOC9; test: Alamar Blue cell viability assay, JHOC9 ovarian cell line; conditions: 96 h incubation, read-out: IC50 in ovarian cell lines JHOC9
Experimental: as §1, §2, §3, §4

[30] = system: SK-MEL 28; test: Alamar Blue cell viability assay, SK-MEL 28; conditions: Homo sapiens, cell proliferation inhibition, 96 h incubation, read-out: Pharmaceutical activity IC50 SK-MEL 28
Experimental: as §1, §2, §3, §4

[31] = system: Malme-3M; test: Alamar Blue cell viability assay, Malme-3M; conditions: Homo sapiens, cell proliferation inhibition, 96 h incubation, read-out: Pharmaceutical activity IC50 Malme-3M
Experimental: as §1, §2, §3, §4

[32] = system: kuramochi; test: Alamar Blue cell viability assay, kuramochi ovarian cell line; conditions: 96 h incubation, read-out: IC50 in ovarian cell lines kuramochi
Experimental: as §1, §2, §3, §4

[33] = system: 2008; test: Alamar Blue cell viability assay, 2008; conditions: cell proliferation inhibition, 96 h incubation, read-out: Pharmaceutical activity IC50 2008
Experimental: as §1, §2, §3, §4

[34] = system: A2780; test: Alamar Blue cell viability assay, A2780; conditions: Homo sapiens, cell proliferation inhibition, 96 h incubation, read-out: Pharmaceutical activity IC50 A2780
Experimental: as §1, §2, §3, §4

[35] = system: EF-21; test: Alamar Blue cell viability assay, EF-21 ovarian cell line; conditions: 96 h incubation, read-out: IC50 in ovarian cell lines EF-21
Experimental: as §1, §2, §3, §4

[36] = system: TOV112D; test: Alamar Blue cell viability assay, TOV112D ovarian cell line; conditions: Homo sapiens, 96 h incubation, read-out: IC50 in ovarian cell lines TOV112D
Experimental: as §1, §2, §3, §4

[37] = Table 2, 96 h incubation, read-out: cell proliferation inhibition ES.2

Compound | IC50 [2] | IC50 [3] | IC50 [5] | IC50 [6] | IC50 [7] | IC50 [9] | IC50 [13] | IC50 [14] | IC50 [15] | IC50 [16] | IC50 [17] | IC50 [20] | IC50 [21] | IC50 [22] | IC50 [23] | IC50 [1] | IC50 [4] | IC50 [10] | IC50 [11] | IC50 [19] | further results
CNC(=O)c1cc2ccc(N3CCCN(C)CC3)nc2n2c1nc1ccccc12 [Compound 2G, 2-(4-methyl-[1,4]diazepan-1-yl)-1,7,11b-triazabenzo[c]fluorene-6-carboxylic acid methylamide] | 1 to 5 µM | < 1 µM | 1 to 5 µM | 1 to 5 µM | 5 to 10 µM | < 1 µM | 1 to 5 µM | 1 to 5 µM | < 1 µM | < 1 µM | < 1 µM | < 1 µM | 1 to 5 µM | 1 to 5 µM | < 1 µM | < 1 µM | < 1 µM | < 1 µM | < 1 µM | < 1 µM | IC50 [25]: < 1 µM; IC50 [26]: < 1 µM; IC50 [27]: < 1 µM; IC50 [28]: < 1 µM; IC50 ([8]; Table 1, cell proliferation inhibition, 96 h incubation, read-out: Pharmaceutical activity IC50 ES.2): < 1 µM; IC50 [8, 37]: < 1 µM; IC50 [29]: < 1 µM; IC50 [12]: 1 to 5 µM; IC50 [30]: < 1 µM; IC50 [31]: < 1 µM; IC50 [32]: < 1 µM; IC50 [18]: < 1 µM; IC50 [33]: < 1 µM; IC50 [34]: < 1 µM; IC50 [35]: < 1 µM; IC50 [24]: < 1 µM; IC50 [36]: < 1 µM
C[C@@H]1CN(c2ccc3cc(C#N)c4nc5ccccc5n4c3n2)C[C@H](C)N1 [Compound 3A, 2-((3S,5R)-3,5-dimethylpiperazin-1-yl)-1,7,11b-triaza-benzo[c]fluorene-6-carbonitrile] | 5 to 10 µM | < 1 µM | 5 to 10 µM | 5 to 10 µM | 5 to 10 µM | 1 to 5 µM | 1 to 5 µM | 5 to 10 µM | < 1 µM | < 1 µM | < 1 µM | < 1 µM | 5 to 10 µM | 5 to 10 µM | < 1 µM | < 1 µM | < 1 µM | < 1 µM | < 1 µM | < 1 µM | IC50 [24]: < 1 µM
CCN1CCN(c2ccc3cc(C#N)c4nc5ccccc5n4c3n2)CC1 [Compound 3B, 2-(4-ethylpiperazin-1-yl)-1,7,11b-triaza-benzo[c]fluorene-6-carbonitrile] |  |  |  |  |  |  |  |  | < 1 µM |  | < 1 µM |  |  |  |  |  |  | < 1 µM |  |  | 

More lines, main results first:

IC50 [2] | IC50 [3] | IC50 [5] | IC50 [6] | IC50 [7] | IC50 [9] | IC50 [13] | IC50 [14] | IC50 [15] | IC50 [16] | IC50 [17] | IC50 [20] | IC50 [21] | IC50 [22] | IC50 [23] | Compound | IC50 [1] | IC50 [4] | IC50 [10] | IC50 [11] | IC50 [19] | further results
5 to 10 µM | < 1 µM | 1 to 5 µM | 5 to 10 µM | 5 to 10 µM | 1 to 5 µM | 5 to 10 µM | 1 to 5 µM | < 1 µM | 1 to 5 µM | < 1 µM | 1 to 5 µM | 1 to 5 µM | 5 to 10 µM | < 1 µM | CN1CCCN(c2ccc3cc(C(=O)O)c4nc5ccccc5n4c3n2)CC1 [Compound 1A, 2-(4-methyl-[1,4]diazepan-1-yl)-1,7,11b-triaza-benzo[c]fluorene-6-carboxylate sodium salt] | < 1 µM | < 1 µM | < 1 µM | < 1 µM | < 1 µM | IC50 [8, 37]: < 1 µM; IC50 [12]: < 1 µM; IC50 [18]: < 1 µM; IC50 [24]: 1 to 5 µM
 |  |  |  |  |  |  |  |  |  | < 1 µM |  |  |  |  | Cc1cnc(CNC(=O)c2cc3ccc(N4CCCN(C)CC4)nc3n3c2nc2ccccc23)cn1 [Compound 2E, 2-(4-methyl-[1,4]diazepan-1-yl)-1,7,11b-triazabenzo[c]fluorene-6-carboxylic acid (5-methylpyrazin-2-ylmethyl)-amide] |  |  |  |  |  | IC50 [25]: 5 to 10 µM
